“And” between values parts separate entries of the source, which are not always exact repeats. Equal entries are not always repeated. Where two headings read alike, the source gives them in different places.
Key:
[1] = test system: wild-type (wt) Salmonella enterica serovar Typhimurium strain SL1344; details: for MIC: non-cation-adjusted MHB, 37°C, 24 h; for MIC in μM, SL1344 wt: Table 3, three biological replicates
Method: (§1) MIC values were determined by broth microdilution according to standard protocols with a few modifications ([26]). An overnight bacterial cell culture, supplemented with the appropriate antibiotic when needed, was diluted 1:100 in fresh MHB and grown to OD600 0.5. The obtained culture was diluted to ∼10^5 cfu/ml or 10^6 cfu/ml, as indicated, in non-cation-adjusted MHB. Subsequently, 190 μl bacterial solution was dispensed into a 96-well plate (Thermo Fisher Scientific) along with 10 μl of a 20x PPNA, PNA or peptide working solution. Growth was monitored by measuring the OD at 600 nm every 20 min in a Synergy H1 plate reader (Biotek) with continuous double-orbital shaking (237 cpm) at 37°C for 24 h.

SL1344 ΔphoP = assay: MIC determination by broth microdilution; assay type: cell-based, Salmonella enterica serovar Typhimurium; details: ∼10^5 cfu/ml; for MIC in μM, SL1344 ΔphoP: Table 3, three biological replicates
Method: as §1
Fig. S4. Growth kinetics for MIC determ ination of 10^5 cfu/m l Salmonella wt (SL1344) and its isogenic ∆phoP m utant in the pres ence of var ying concentrations of the indicated conjugates. ( A) KFF-acpP, KFF-acpP-scram bled (scr) or KFF peptide in serial dilutions from 10 µM to 0.3 µM. ( B) RXR- acpP, RXR-acpP-scram bled (scr) or RXR peptide in seria l d ilutions f rom 10 µM to 0. 3 µM. ( C) T at-acpP, T at-acpP-scrambled (scr) or T at peptide in serial dilutions from 20 µM to 0.6 µM. D ata represent the average of three biological replicates, error bars indicate standard er ror of the m ean […]
(§2) (1 picture or pasted object on this page, not shown here)

[2] = test system: wild-type Salmonella enterica serovar Typhimurium strain LT2; assay: MIC determination by broth microdilution; assay type: cell-based; details: Table 3; ∼10^5 cfu/ml; three biological replicates
Method: as §1
Fig. S5. Growth k inetics for MIC determ ination of 10^5 cfu/m l Salmonella wt (LT 2) and its isogenic
Pho PC m utant in the presen ce of var ying co ncentra tio n s of the in dicat ed co njugat e s. ( A) KFF-acpP,
KFF-acpP-scram bled (scr) or KFF peptide in s erial dilutions from 10 µM to 0.3 µM. ( B) RXR- acpP,
RXR- acpP-scram bled (scr) or RXR peptide in serial dilutions from 10 µM to 0.3 µ M. ( C) T at-acpP,
T at-acpP-scram bled (scr) or T at peptide in serial dilutions from 20 µM to 0.6 µM. Data represent
the average of three biological replicates, error bars indicate standard error of the m ean (SEM).
as §2

[3] = test system: Salmonella gene expression; assay: RNA-seq transcriptomic response; assay type: cell-based, Salmonella enterica serovar Typhimurium; details: 15 min
Method: (§3) Bacterial overnight cultures were diluted 1:100 in fresh MHB and grown to OD600 0.5. The obtained cultures were diluted to ∼10^6 cfu/ml in non-cation-adjusted MHB. Afterward, the bacterial solution was transferred into low-binding 5 ml tubes (LABsolute) along with the 20× PNA, peptide or PPNA solution. The final concentrations were 5 μM for KFF- and RXR-PNAs, and 10 μM for Tat-PNAs. Equimolar concentrations were used for the respective peptide control conditions. As a negative control, cells were treated with the respective volume of sterile nuclease-free water, which was used as solvent for the test compounds.
A time kinetic was performed for subsequent northern blot analysis (5, 10, 15 min), in which the reaction was stopped at the indicated time points by using RNAprotect Bacteria (Qiagen). For RNA-seq analyses, adding RNAprotect Bacteria at 15 min post treatment stopped the reactions with the indicated PPNA constructs or the respective peptide. After vortexing for 5 s, the samples were incubated at room temperature for 10 min, followed by cell pelleting at 4°C and 21 100 ×g for 20 min. Pellets were directly used for RNA isolation or stored at –20°C (<2 days) until further processing. RNA was purified from bacterial pellets using isolation protocol #3, as described above (0.5 mg/ml lysozyme, miRNeasy).
DNase treatment, cDNA library preparation and sequencing was conducted at Vertis (Munich, Germany). The RNA samples were first fragmented using ultrasound (4 pulses of 30 s each at 4°C). Then, an oligonucleotide adapter was ligated to the 3′ ends of the RNA molecules. First-strand cDNA synthesis was performed using M-MLV reverse transcriptase and the 3′ adapter as primer. The first-strand cDNA was purified and the 5′ Illumina TruSeq sequencing adapter was ligated to the 3′ end of the antisense cDNA. The resulting cDNA was PCR-amplified to about 10–20 ng/μl using a high fidelity DNA polymerase. The cDNA was purified using the Agencourt AMPure XP kit (Beckman Coulter Genomics) and was analyzed by capillary electrophoresis. For Illumina NextSeq sequencing, the samples were pooled in approximately equimolar amounts. The cDNA pool was sequenced on an Illumina NextSeq 500 system using 75 bp read length.
Reads from the RNA-Seq experiments were trimmed, filtered and mapped against the S. enterica subsp. enterica serovar Typhimurium SL1344 reference genome and the three plasmids pSLT_SL1344, pCol1B9_SL1344 (other name is p2), and pRSF1010_SL1344 ([19]). BBDuk was applied to trim bases with a Phred quality score of <10, and adapters were removed simultaneously. Reads were then mapped against the reference genome using BBMap (v38.84) and then assigned genomic features, including both coding sequences and annotated sRNAs ([19],[29]) using the featureCounts method of the Subread (2.0.1) package.
All downstream analysis was performed using packages from the R/Bioconductor project. The raw read counts were imported and analyzed with edgeR (v3.30.0). Each set of PNA-peptide conjugate experiments (i.e. experiments with KFF, RXR and Tat peptide) was analyzed simultaneously. Genes with less than 14.6 counts per million (CPM) in at least three libraries were filtered. This cutoff value was calculated using 10/L, where L is the library size of the smallest sample (minimum library size) in millions.
Raw read counts were normalized by trimmed mean of M values (TMM) normalization. Differential expression analysis was conducted using edgeR ([31]). Estimation of quasi-likelihood (QL) dispersions was then run with the […] function. Then contrasts between all samples versus the water controls were created as input for the glmQLTest function.
Genes with an absolute fold change >2 and an adjusted P-value (Benjamini–Hochberg, ([32])) <0.001 were considered differentially expressed.

fabF mRNA = assay: RNA-seq differential expression, second gene of the dicistron; assay type: cell-based, Salmonella enterica serovar Typhimurium; details: edgeR, versus water; 15 min; 5 μM KFF-/RXR-constructs, 10 μM Tat-constructs; triplicates
Method: as §3, with “compounds. […]” for “compounds.”
DNase treatment, cDNA library preparation and sequencing was conducted at Vertis (Munich, Germany). […] The cDNA was purified using the Agencourt AMPure XP kit (Beckman Coulter Genomics) and was analyzed by capillary electrophoresis. […] The cDNA pool was sequenced on an Illumina NextSeq 500 system using 75 bp read length.
Reads from the RNA-Seq experiments were trimmed, filtered and mapped against the S. enterica subsp. enterica serovar Typhimurium SL1344 reference genome and the three plasmids pSLT_SL1344, pCol1B9_SL1344 (other name is p2), and pRSF1010_SL1344 ([19]). […]
All downstream analysis was performed using packages from the R/Bioconductor project. The raw read counts were imported and analyzed with edgeR (v3.30.0). […]

[4] = Table 1, ∼10^5 cfu/ml, lowest concentration with OD600 < 0.1
[5] = Table 2, ∼10^6 cfu/ml, performed three times
[6] = edgeR, versus water, 5 μM RXR-constructs, 10 μM Tat-constructs, triplicates, listed as PNARXR
[7] = edgeR, versus water, 5 μM RXR-constructs, 10 μM Tat-constructs, triplicates, listed as PNATAT
[8] = edgeR, versus water, 5 μM KFF-/RXR-constructs, 10 μM Tat-constructs, triplicates, listed as PNAKFF

Sequence: RXRRXRRXRRXRXB [RXR-acpP, RXR peptide conjugated to 10-mer antisense PNA against acpP]
- MIC ([1]; Table 1, ∼10^5 cfu/ml): 11 µg/mL
- MIC [1, 4]: 2.5 µM
- MIC [1, 5]: 5 µM
- MIC in μM, SL1344 wt ([1]; ∼10^5 cfu/ml): 2.5 µM
- MIC in μM, SL1344 ΔphoP (SL1344 ΔphoP): 1.25 to 2.5 µM
- MIC in μM, LT2 wt [2]: 1.25 µM
- number of downregulated sRNAs, apart from the induction of AmgR ([3]; RNA-seq, 5 μM): four
- upregulation of mig-14 ([3]; RNA-seq, 5 μM): 1.89 fold
- logFC SL1344_0066A [3, 6]: 4.762
- logFC SL1344_2742 [3, 6]: 3.54
- logFC mgtA [3, 6]: 1.7
- logFC hfq ([3]; edgeR, versus water, 5 μM, triplicates): -1.309

Sequence: GRKKKRRQRRRYK [Tat-acpP, Tat peptide conjugated to 10-mer antisense PNA against acpP]
- MIC ([1]; Table 1, ∼10^5 cfu/ml): 22 µg/mL
- MIC [1, 4]: 5 µM
- MIC [1, 5]: 10 µM
- MIC in μM, SL1344 wt ([1]; ∼10^5 cfu/ml): 5 µM
- reduction in the MIC of the ΔphoP strain compared to wild-type Salmonella (SL1344 ΔphoP; SL1344 ΔphoP versus SL1344 wt): 2 fold
- MIC in μM, SL1344 ΔphoP (SL1344 ΔphoP): 2.5 µM
- MIC in μM, LT2 wt [2]: 2.5 to 5 µM
- number of differentially expressed sRNAs, apart from AmgR upregulation ([3]; RNA-seq, 10 μM): five
- logFC SL1344_0066A [3, 7]: 4.741
- logFC SL1344_2742 [3, 7]: 3.794
- logFC sseG ([3]; edgeR, versus water, 10 μM, triplicates): 3.37
- logFC recJ ([3]; edgeR, versus water, 10 μM, triplicates, listed as PNATAT): 1.967

Sequence: KFFKFFKFFK [KFF-acpP, KFF peptide conjugated to 10-mer antisense PNA against the translational start site of acpP]
- MIC ([1]; Table 1, ∼10^5 cfu/ml): 5 µg/mL
- MIC [1, 4]: 1.25 µM
- MIC [1, 5]: 5 µM
- MIC in μM, SL1344 wt ([1]; ∼10^5 cfu/ml): 1.25 µM
- MIC in μM, SL1344 ΔphoP (SL1344 ΔphoP): did not alter the MIC and 1.25 μM
- MIC in μM, LT2 wt [2]: 1.25 µM
- logFC fabF (fabF mRNA): -1.1555
- number of differentially expressed genes ([3]; absolute fold change >2 and FDR-adjusted P-value <0.001 versus water, 5 μM KFF-/RXR-constructs, 10 μM Tat-constructs): 5
- upregulation of AmgR transcript levels ([3]; RNA-seq, 5 μM): ~1.9 fold
- upregulation of mig-14, virK and yfiA mRNAs ([3]; RNA-seq, 5 μM): 2- to 4 fold
- logFC yfiA ([3]; edgeR, versus water, 5 μM KFF-/RXR-constructs, 10 μM Tat-constructs, triplicates): 1.09
- logFC mig-14 [3, 8]: 1.3466
- logFC virK [3, 8]: 1.758
